# In publication PMC8400920, “Metabolism of Diterpenoids Derived from the Bark of Cinnamomum cassia in Human Liver Microsomes” (Pharmaceutics, 2021):
# Tests used:
# [1] = system: human liver microsomes (HLMs); assay: Identification of phase I metabolites of AHC in HLMs; format: in vitro ADME; conditions: 10 µM AHC, 1 mg/mL pooled HLMs, with NGS, 60 min
# Protocol: To identify AHC metabolites, 10 µM AHC was incubated with 1 mg/mL pooled HLMs in 0.1 M potassium phosphate buffer (pH 7.4) at 37 °C for 60 min. The reactions were initiated by adding NGS to obtain a final incubation volume of 200 µL. All experiments were conducted in triplicate. The reaction was terminated by adding 400 µL of 100% ACN, and the mixture was vortexed and then centrifuged for 10 min at 15,700× g. Next, the supernatant (550 µL) was transferred to a new tube and dried using a speed-vac concentrator with a cold trap (Labconco, Kansas, MO, USA). Subsequently, the dried samples were reconstituted in 100 µL of 20% MeOH containing 0.1% formic acid before centrifugation at 15,700× g for 10 min. Finally, the mixture was injected into a liquid chromatograph with a tandem mass spectrometer for analysis. […]
# The mobile phase consisted of 100% water with 0.1% formic acid (mobile phase A) and 100% ACN with 0.1% formic acid (mobile phase B). […] Data were analyzed using Xcalibur version 4.0 software (Thermo Fisher Scientific, Waltham, MA, USA).
# To identify the phase I metabolites of AHC in HLMs, 10 µM AHC was incubated in pooled HLMs without or with the NGS for 60 min. […] The extracted ion chromatograms of the generated AHC metabolites are shown in Figure 2A,B. AHC was detected as a deprotonated ion, [M − H]^−, at m/z 407 and 15.6 min in the negative ion mode. […]
# [2] = target: T1, CYP1A2 (Homo sapiens, UniProt P05177); assay: AHC metabolism by recombinant cDNA-expressed CYP isoform; format: in vitro ADME; conditions: 10 µM AHC, 10 pmol recombinant CYP, NGS, 37 °C, 60 min
# T1 construct: purchased Corning Gentest
# T1 sequence (P05177 1-516): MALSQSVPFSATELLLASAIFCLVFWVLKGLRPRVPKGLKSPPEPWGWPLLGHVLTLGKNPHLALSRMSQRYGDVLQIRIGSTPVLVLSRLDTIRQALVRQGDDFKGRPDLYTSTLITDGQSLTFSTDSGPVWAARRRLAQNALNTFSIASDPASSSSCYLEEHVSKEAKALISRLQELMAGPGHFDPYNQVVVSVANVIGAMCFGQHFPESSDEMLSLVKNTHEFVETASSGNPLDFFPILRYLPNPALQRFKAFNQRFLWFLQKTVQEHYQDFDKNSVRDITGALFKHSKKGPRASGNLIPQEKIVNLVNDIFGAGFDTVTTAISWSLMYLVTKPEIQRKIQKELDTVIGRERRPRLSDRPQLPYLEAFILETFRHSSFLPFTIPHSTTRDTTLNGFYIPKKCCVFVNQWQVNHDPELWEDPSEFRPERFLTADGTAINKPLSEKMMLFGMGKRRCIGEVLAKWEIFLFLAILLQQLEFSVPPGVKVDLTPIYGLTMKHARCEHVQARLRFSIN
# Protocol: To identify the metabolic enzymes for AHC, 10 µM AHC was incubated with 10 pmol of human recombinant cDNA-expressed CYP isoforms (CYP1A1, 1A2, 2A6, 2B6, 2C8, 2C9, 2C19, 2D6, 2E1, 3A4, and 3A5) in the presence of 0.1 M potassium phosphate buffer (pH 7.4). The reaction was initiated by adding 100 µL of NGS at 37 °C for 60 min. Then, the mixture was suspended by adding 400 µL of ice-cold 100% ACN. Following centrifugation at 15,700× g for 10 min at 4 °C, the supernatant was transferred to a new tube and evaporated using a speed-vacuum concentrator. Next, the dried sample was diluted with 100 µL of 20% MeOH containing 0.1% formic acid, and a 5 µL aliquot was injected into a C18 column for LC–MS/MS analysis.
# To identify the CYP isoforms involved in AHC metabolism, AHC (10 µM) was incubated with eleven cDNA-expressed recombinant CYP isoforms (CYP1A1, CYP1A2, CYP2A6, CYP2B6, CYP2C8, CYP2C9, CYP2C19, CYP2D6, CYP2E1, CYP3A4, and CYP3A5) in the presence of the NGS. […] However, the metabolites of AHC were not observed from reactions with other CYPs. Thus, in the metabolism of AHC in HLMs, CYP3A4 was involved as the main enzyme, and four types of metabolites were generated.
smiles,measurement,setting,value
"CC(=O)O[C@@H]1[C@@H](C)CC[C@]2(O)[C@]3(C)CC(=O)O[C@]12[C@@]1(O)C(C)=C(C(C)C)C[C@@]31O [AHC, anhydrocinnzeylanine]",number of metabolites produced in HLMs,[1],20
same,metabolites of AHC from reaction with CYP1A2,[2],not observed
